Values of other authors, collected in patent US20070009923A1, “Use of bayesian networks for modeling cell signaling systems” (Massachusetts Institute of Technology, priority 2005, published 2007).

Tested on: PKC isozymes

Cn1c2ccccc2c2c3c(c4c5ccccc5n(CCC#N)c4c21)CNC3=O [G06976]
IC50: < 8 nM
